Data published in patent US7655420B2, “Methods to increase or decrease bone density” (Celltech R & D, Inc., priority 2002, dated 2010).
Entries after “also recorded” stand apart in the source; their conditions may differ.

Columns and labels:
SOST expression [1] = assay: BMP-6 induction of SOST expression in hMSC cells with test compounds (RT-PCR); assay type: cell-based, human; conditions: for Results (effect on BMP-6 induction of SOST expression): BMP-6, 72 hrs, compound at 1 × 10^−7 M
Method: The previous example illustrates that SOST expression was enhanced by bone morphogenetic proteins and modulated by steroids such as dexamethasone. In this example, human MSC cells were incubated with bone morphogenetic proteins in the presence of various test agents to determine whether other steroids and compounds could affect the BMP-induction of SOST. SOST expression was monitored by reverse transcriptase polymerase chain reaction (RT-PCR).
Human mesenchymal cells (hMSCs) were plated in regular growth media containing 2% FCS and treated with BMP-6 either alone or in combination with the test compounds. The cells were harvested 72 hrs later and RNA was prepared for RT-PCR analysis of SOST expression.

SOST expression [2] = assay: SOST expression in hMSC cells and primary human osteoblasts treated with growth factors and hormones (RT-PCR); assay type: cell-based; conditions: 72 hrs; for SOST expression, factor alone: hMSC cells (and primary human osteoblasts), RT-PCR; for SOST expression, steroid added in combination with BMP-4 versus BMP-4 alone: hMSC cells, vit D 10^−7M, RA 10^−6M, DEX 10^−7M
Method: (§1) As immature osteoblasts differentiate and become capable of mineralization, they express markers associated with the osteoblast phenotype (type I collagen and parathyroid hormone receptor (PTHr)). These markers were used to ascertain whether differentiation had occurred so that the influence of growth factors and hormones could be correlated with the stage differentiation as well as the level of SOST expression.
(§2) Human mesenchymal cells and primary human osteoblasts were plated in regular growth media containing 2% FCS at a density of 10,000 cells 1 cm^2. Test reagents (10^−7 M dexamethasone, 10^−6 M retinoic acid, 10 ng/ml TGF-β1, PTH (10^−8 M), 10 or 50 ng/ml IGF-1, 10^−7 M1,25-dihydroxyvitamin D3, and 50 to 300 ng/ml of bone morphogenetic proteins 2, 4 or 6) were added singly or in combination on the following day.

gremlin expression = gremlin expression in hMSC cells treated with BMPs and steroids (RT-PCR); assay type: cell-based, human; conditions: 72 hrs; for BMP-4 induced gremlin expression, steroid added with BMP-4: BMP-4 100 ng/ml; for gremlin expression, factor alone: RT-PCR
Method: as §1, §2

noggin expression = noggin expression in hMSC cells treated with BMPs and steroids (RT-PCR); assay type: cell-based, human; conditions: 72 hrs
Method: as §1, §2

PTHr expression = PTHr expression in hMSC cells treated with factors (RT-PCR); assay type: cell-based, human; conditions: 72 hrs, IGF-1 at 50 ng/ml, DEX 10^−7M
From the text: as §1, with “In this example, the effect of growth factors and hormones on SOST expression in hMSC cells or primary human osteoblasts was observed using RT-PCR. […] As” for “As”
as §2, with “day. Cultures were continued for 24 to 120 hrs after which the cells were harvested for RNA isolation.” for “day.”

[3] = tested on: BMP-6 stimulated alkaline phosphatase activity; assay: BMP-6 stimulated alkaline phosphatase activity in mouse mesenchymal C3H10T1/2 cells; assay type: cell-based
Method: C3H10T1/2 cells (ATCC Deposit No. CCL-226) were plated in 96-well dishes at a density of 25,000 cells per well in complete growth medium (DMEM with high glucose and glutamine supplemented with 10% FCS, 1% penicillin/streptomycin, 0.1 mM non-essential amino acids, 1 mM sodium pyruvate, 55 μM β-mercaptoethanol, and 20 mM HEPES, pH 7.3). C3H10T1/2 cells were used in a short-term (72 hr) assay to determine the effects of human sclerostin protein on BMP-induced ALP activity. Partially purified preparations of bacculovirus-expressed sclerostin protein were prepared in sterile PBS using NAP-5 columns prior to use. Sclerostin protein (0 to 50 μg/ml) or an equal volume of Sf9 conditioned media (control) was pre-incubated with 500 ng/ml BMP-6 for 1 hr prior to addition to cells. For comparison, similar incubations were carried out with anti-BMP-6 antibody and noggin. Cells were harvested 72 hrs later for determination of ALP activity.
To test the specificity of the sclerostin effect, human sclerostin that was synthesized with a FLAG tag, was pre-incubated for 2 hrs at 4° C. with an anti-FLAG antibody coupled to agarose beads. The mixture was then spun down at 10,000×g for 15 minutes at 4° C. and the supernatant treated as “sclerostin protein” in the above assay.

[4] = tested on: alkaline phosphatase (ALP) activity in hMSC cells; assay: alkaline phosphatase activity in differentiating hMSC cells; assay type: cell-based, human; conditions: sclerostin 10 μg/ml and increasing amounts of BMP-6
[5] = tested on: alkaline phosphatase (ALP) activity in hMSC cells; assay: as above; assay type: cell-based, human; conditions: hMSC cells, Osteoblast-Inducing media, 7 days
Method: hMSC cells were plated in 96-well tissue culture dishes at a density of 10,000 cells/cm^2 in Osteoblast-Inducing medium. Partially purified preparations of baculovirus-expressed sclerostin protein were prepared in sterile PBS using NAP-5 columns prior to use. Human sclerostin protein (0 to 30 μg/ml) or an equal volume of Sf9 conditioned media (Control) was added to cultures of hMSC cells at various times after plating (1 day, 8 days, 15 days, or 21 days). The effects of sclerostin on osteoblastic differentiation were assessed by measuring alkaline phosphatase activity (ALP, determined in cell layers using DEAA buffer (Pierce) containing 0.5% NP-40 and 10 mM p-nitrophenylphosphate), synthesis of collagen type I (Prolagen C ELISA), and calcium deposition for mineralization (colorimetric assay of acid lysates of cell layers, Sigma).

[6] = tested on: caspase activity in hMSC cells; assay: apoptosis of hMSC cells by caspase activity (Homogeneous Caspase ELISA); assay type: cell-based, human; conditions: hMSC in osteoblast-inducing media, 20 μg/ml sclerostin or other protein, 24 hours
Method: Human mesenchymal (hMSC) cells were plated in Osteoblast-inducing media (Biowhittaker's MSCGM medium supplemented with 100 nM dexamethasone, 50 μg/ml ascorbic acid, and 10 mM β-glycerophosphate) at a density of 10,000 cells/cm^2 in 96-well dishes.
For apoptosis assays, cells were treated with sclerostin or commercially available preparations of the BMP antagonists noggin, chordin, gremlin or twisted gastrulation (Tsg) for 24 hours prior to assay for caspase activity. In some experiments, cells were treated for various times with a partially purified preparation of baculovirus-expressed human sclerostin (0 to 30 μg/ml) or an equal volume of a protein preparation purified from Sf9 conditioned media (control) in the absence or presence of Calbiochem's caspase inhibitors. Cells were harvested and processed for apoptosis assays using the Homogeneous Caspase ELISA (Roche) or Cell Death (Histone-Associated DNA Fragmentation, Roche).

For `C[C@@H]1C[C@H]2[C@@H]3CCC4=CC(=O)C=C[C@]4(C)[C@@]3(F)[C@@H](O)C[C@]2(C)[C@@]1(O)C(=O)CO` [Dexamethasone, dexamethasone, reference compound], the “induction of SOST expression by BMP-6 (BMP-induced SOST expression)” value (SOST expression [1]; 72 hrs, no single concentration stated in the sentence) was “blocks”, the “Results (effect on BMP-6 induction of SOST expression)” value (SOST expression [1]) was “blocked; also recorded: Inhibition” and the “Results (effect on BMP-6 induction of SOST expression)” value (SOST expression [1]; listed as DEX) was “blocked”. The “SOST expression, factor alone” value (SOST expression [2]) was “no effect”, the “SOST expression, steroid added in combination with BMP-4 versus BMP-4 alone” value (shortened to “SOST expression … with BMP-4 versus BMP-4 alone”) (SOST expression [2]) was “abolished the stimulatory effect” and the “SOST expression … with BMP-4 versus BMP-4 alone” value (SOST expression [2]; listed as dexamethasone) was “abolished the stimulatory effect; also recorded: significantly suppressed; also recorded: depressed”. The “BMP-4 induced gremlin expression, steroid added with BMP-4” value (gremlin expression) was “diminished”, the “gremlin expression, factor alone” value (gremlin expression) was “decreased” and the “noggin expression, factor alone” value (noggin expression) was “increase”. The PTHr expression (PTHr expression) was “induced”.

In the case of `CC1=C(/C=C/C(C)=C/C=C/C(C)=C/C(=O)O)C(C)(C)CCC1` [retinoic acid, reference compound], the “SOST expression, factor alone” value (SOST expression [2]) is reported as “no effect”.

For `C=C1/C(=C\C=C2/CCC[C@]3(C)[C@@H]([C@H](C)CCCC(C)(C)O)CC[C@@H]23)C[C@@H](O)C[C@@H]1O` [vitamin D, 1,25-dihydroxyvitamin D3, reference compound], the “SOST expression, factor alone” value (SOST expression [2]) was “no effect”, the “SOST expression … with BMP-4 versus BMP-4 alone” value (SOST expression [2]) was “enhanced” and the “BMP-4 induced gremlin expression, steroid added with BMP-4” value (gremlin expression) was “did not alter”. The “gremlin expression, factor alone” value (gremlin expression) was “unchanged” and the “noggin expression, factor alone” value (noggin expression) was “increase”.

IGF-1: insulin-like growth factor-1 was tested, and the “SOST expression, factor alone” value (SOST expression [2]) was “enhanced” and the PTHr expression (PTHr expression) was “induced”.

With TGF-β: transforming growth factor-β the “SOST expression, factor alone” value (SOST expression [2]) was “no effect”.

B1: BMP-6: bone morphogenetic protein 6, purchased from R & D Systems (protein)
chain: QQSRNRSTQSQDVARVSSASDYNSSELKTACRKHELYVSFQDLGWQDWIIAPKGYAANYCDGECSFPLNAHMNATNHAIVQTLVHLMNPEYVPKPCCAPTKLNAISVLYFDDNSNVILKKYRNMVVRACGCH
With B1 the “SOST expression, factor alone” value (SOST expression [2]) was “enhanced; also recorded: up-regulated”, the “gremlin expression, factor alone” value (gremlin expression) was “only modestly increased” and the “noggin expression, factor alone” value (noggin expression) was “up-regulated”. The “ALP activity, effect of BMP-6” value ([3]; 72 hrs) was “increased in a dose-dependent manner; also recorded: stimulatory effect” and the “reversal of the inhibitory effect of sclerostin on alkaline phosphatase” value [4] was “partially reversed”.

B2: BMP-4: bone morphogenetic protein 4, purchased from R & D Systems (protein, UniProt P12644 293-408, looked up)
Bone morphogenetic protein 4: SPKHHSQRARKKNKNCRRHSLYVDFSDVGWNDWIVAPPGYQAFYCHGDCPFPLADHLNSTNHAIVQTLVNSVNSSIPKACCVPTELSAISMLYLDEYDKVVLKNYQEMVVEGCGCR
B2 was tested, and the “SOST expression, factor alone” value (SOST expression [2]) was “enhanced; also recorded: up-regulated; also recorded: significantly increased”, the “gremlin expression, factor alone” value (gremlin expression) was “only modestly increased; also recorded: enhanced” and the “noggin expression, factor alone” value (noggin expression) was “up-regulated; also recorded: enhanced; also recorded: increase”.

B3: PTH: parathyroid hormone (PTH), tested at 10^−8 M (peptide, UniProt P01270 32-115, looked up)
Parathyroid hormone: SVSEIQLMHNLGKHLNSMERVEWLRKKLQDVHNFVALGAPLAPRDAGSQRPRKKEDNVLVESHEKSLGEADKADVNVLTKAKSQ
modifications: Parathyroid hormone
notes: parathyroid hormone (PTH), tested at 10^−8 M
B3 was tested, and the “SOST expression, factor alone” value (SOST expression [2]) was “no effect”.

B4: noggin: BMP antagonist protein (mouse noggin), purchased from R & D Systems (protein)
chain: QHYLHIRPAPSDNLPLVDLIEHPDPIFDPKEKDLNETLLRSLLGGHYDPGFMATSPPEDRPGGGGGPAGGAEDLAELDQLLRQRPSGAMPSEIKGLEFSEGLAQGKKQRLSKKLRRKLQMWLWSQTFCPVLYAWNDLGSRFWPRYVKVGSCFSKRSCSVPEGMVCKPSKSVHLTVLRWRCQRRGGQRCGWIPIQYPIISECKCSC
In the case of B4, the ALP activity ([5]; protein at 1 μg/ml) is reported as “no effect”, the ALP activity ([5]; protein at 5 μg/ml) is reported as “significantly increased” and the “stimulatory effect of BMP-6 on alkaline phosphatase activity (antagonism)” value ([3]; 500 ng/ml BMP-6, 72 hrs) is reported as “antagonized”. The “IC50, decrease of BMP-6 stimulated alkaline phosphatase activity” value ([3]; pre-incubated with 500 ng/ml BMP-6 for 1 hr, 72 hrs) was 0.3 µg/mL and the caspase activity [6] was “no increase; also recorded: no significant effect”.
